{"source": "paper PMC5218480", "about": "(PLoS ONE, 2017)", "system": "MV-4-11 cells", "assay": "Gene expression microarray analysis (Affymetrix PrimeView) and GSEA", "format": "cell-based, human", "design": "RFU PODN (11730768_x_at) / Fold change /veh PODN (11730768_x_at) / RFU LINC00158 (11744669_a_at) / Fold change /veh LINC00158 (11744669_a_at) / RFU DUSP10 (11751237_a_at) / Fold change /veh DUSP10 (11751237_a_at) / RFU ID3 (11757404_x_at) / Fold change /veh ID3 (11757404_x_at) / RFU PLEKHG5 (11737974_s_at) / Fold change /veh PLEKHG5 (11737974_s_at) / RFU LRRC4B (11730491_at) / Fold change /veh LRRC4B (11730491_at) / RFU GIMAP4 (11747438_a_at) / Fold change /veh GIMAP4 (11747438_a_at) / RFU KRT8 (11758183_x_at) / Fold change /veh KRT8 (11758183_x_at) / RFU CNN1 (11734310_a_at) / Fold change /veh CNN1 (11734310_a_at) / RFU VPS37D (11726825_at) / Fold change /veh VPS37D (11726825_at) / RFU C10orf10 (11716522_x_at) / Fold change /veh C10orf10 (11716522_x_at) / RFU KIR2DL2 /// KIR2DL4 /// KIR2DL5A /// KIR2DL5B /// KIR2DS1 /// KIR2DS2 /// KIR2DS3 /// KIR2DS4 /// KIR3DL3 /// KIR3DL3 /// KIR3DS1 (11738374_at) / Fold change /veh KIR2DL2 /// KIR2DL4 /// KIR2DL5A /// KIR2DL5B /// KIR2DS1 /// KIR2DS2 /// KIR2DS3 /// KIR2DS4 /// KIR3DL3 /// KIR3DL3 /// KIR3DS1 (11738374_at) / RFU C1QL1 (11718748_at) / Fold change /veh C1QL1 (11718748_at) / RFU TMPRSS4 (11747572_a_at) / Fold change /veh TMPRSS4 (11747572_a_at) / RFU HAMP (11756126_x_at) / Fold change /veh HAMP (11756126_x_at) / RFU RNFT2 (11725882_a_at) / Fold change /veh RNFT2 (11725882_a_at) / RFU NR4A2 (11747474_a_at) / Fold change /veh NR4A2 (11747474_a_at) / RFU ABCC12 (11746883_a_at) / Fold change /veh ABCC12 (11746883_a_at) / RFU TMEM136 (11760407_x_at) / Fold change /veh TMEM136 (11760407_x_at) / RFU CLDN22 /// WWC2 (11732394_at) / Fold change /veh CLDN22 /// WWC2 (11732394_at) / RFU HLA-DPB1 (11760878_x_at) / Fold change /veh HLA-DPB1 (11760878_x_at) / RFU SPINT1 (11716480_a_at) / Fold change /veh SPINT1 (11716480_a_at) / RFU GAP43 (11754022_s_at) / Fold change /veh GAP43 (11754022_s_at) / RFU A4GNT (11735810_at) / Fold change /veh A4GNT (11735810_at) / RFU PRB3 (11715151_x_at) / Fold change /veh PRB3 (11715151_x_at) / RFU TUBB4B (11761932_at) / Fold change /veh TUBB4B (11761932_at) / RFU CAPN14 (11732068_a_at) / Fold change /veh CAPN14 (11732068_a_at) / RFU TMCC2 (11721928_a_at) / Fold change /veh TMCC2 (11721928_a_at) / RFU IRGQ (11745062_a_at) / Fold change /veh IRGQ (11745062_a_at) / RFU FAM174B (11720279_a_at) / Fold change /veh FAM174B (11720279_a_at) / RFU TMPRSS4 (11748680_a_at) / Fold change /veh TMPRSS4 (11748680_a_at) / RFU FAM212B (11763350_a_at) / Fold change /veh FAM212B (11763350_a_at) / RFU PLEKHG5 (11743358_a_at) / Fold change /veh PLEKHG5 (11743358_a_at) / RFU ZSCAN30 (11745921_a_at) / Fold change /veh ZSCAN30 (11745921_a_at) / RFU CMKLR1 (11741424_a_at) / Fold change /veh CMKLR1 (11741424_a_at) / RFU LOC101060620 /// MAPK8IP1 (11723275_at) / Fold change /veh LOC101060620 /// MAPK8IP1 (11723275_at) / RFU SPTSSB (11747773_x_at) / Fold change /veh SPTSSB (11747773_x_at) / RFU PRSS12 (11739890_at) / Fold change /veh PRSS12 (11739890_at) / RFU BIN1 (11741810_x_at) / Fold change /veh BIN1 (11741810_x_at) / RFU WNT11 (11732464_a_at) / Fold change /veh WNT11 (11732464_a_at) / RFU C10orf10 (11716521_a_at) / Fold change /veh C10orf10 (11716521_a_at) / RFU C5orf56 (11738089_at) / Fold change /veh C5orf56 (11738089_at) / RFU CYB561 (11721691_x_at) / Fold change /veh CYB561 (11721691_x_at) / RFU ANKRD19P (11752326_a_at) / Fold change /veh ANKRD19P (11752326_a_at) / RFU OR2T12 /// OR2T33 /// OR2T8 (11738714_s_at) / Fold change /veh OR2T12 /// OR2T33 /// OR2T8 (11738714_s_at) / RFU VCAN (11748164_a_at) / Fold change /veh VCAN (11748164_a_at) / RFU JSRP1 (11732532_at) / Fold change /veh JSRP1 (11732532_at) / RFU KRTAP10-11 (11738290_x_at) / Fold change /veh KRTAP10-11 (11738290_x_at) / RFU MYO3A (11730013_a_at) / Fold change /veh MYO3A (11730013_a_at) / RFU EBF3 (11725865_a_at) / Fold change /veh EBF3 (11725865_a_at) / RFU CAMK2N1 (11719241_x_at) / Fold change /veh CAMK2N1 (11719241_x_at) / RFU C5orf56 (11738088_a_at) / Fold change /veh C5orf56 (11738088_a_at) / RFU OLFML3 (11715873_a_at) / Fold change /veh OLFML3 (11715873_a_at) / RFU LOC100653217 /// NTM (11731650_a_at) / Fold change /veh LOC100653217 /// NTM (11731650_a_at) / RFU MAPK11 (11762145_a_at) / Fold change /veh MAPK11 (11762145_a_at) / RFU FIZ1 (11724087_x_at) / Fold change /veh FIZ1 (11724087_x_at) / RFU OASL (11726364_x_at) / Fold change /veh OASL (11726364_x_at) / RFU SOX15 (11748057_x_at) / Fold change /veh SOX15 (11748057_x_at) / RFU CD79A (11719716_a_at) / Fold change /veh CD79A (11719716_a_at) / RFU HIST1H1D (11736915_at) / Fold change /veh HIST1H1D (11736915_at) / RFU CASKIN2 (11723855_a_at) / Fold change /veh CASKIN2 (11723855_a_at) / RFU LOC730098 (11760151_x_at) / Fold change /veh LOC730098 (11760151_x_at) / RFU OR4N2 (11742367_at) / Fold change /veh OR4N2 (11742367_at) / RFU PRRT2 (11749266_a_at) / Fold change /veh PRRT2 (11749266_a_at) / RFU SNX32 (11753110_a_at) / Fold change /veh SNX32 (11753110_a_at) / RFU CDHR5 (11726645_a_at) / Fold change /veh CDHR5 (11726645_a_at) / RFU RCAN1 (11760418_a_at) / Fold change /veh RCAN1 (11760418_a_at) / RFU FAM167A (11723789_a_at) / Fold change /veh FAM167A (11723789_a_at) / RFU FAM26E (11764081_at) / Fold change /veh FAM26E (11764081_at) / RFU ISYNA1 (11749810_s_at) / Fold change /veh ISYNA1 (11749810_s_at) / RFU ACY1 (11761880_at) / Fold change /veh ACY1 (11761880_at) / RFU 11764098_at / Fold change /veh 11764098_at / RFU SAMD14 (11745864_x_at) / Fold change /veh SAMD14 (11745864_x_at) / RFU NPB (11741838_a_at) / Fold change /veh NPB (11741838_a_at) / RFU TMPRSS6 (11731388_a_at) / Fold change /veh TMPRSS6 (11731388_a_at) / RFU KRTAP10-2 (11738614_at) / Fold change /veh KRTAP10-2 (11738614_at) / RFU ARHGAP8 /// PRR5-ARHGAP8 (11727945_x_at) / Fold change /veh ARHGAP8 /// PRR5-ARHGAP8 (11727945_x_at) / RFU KRTAP5-7 /// NADSYN1 (11734609_at) / Fold change /veh KRTAP5-7 /// NADSYN1 (11734609_at) / RFU RASL12 (11751679_a_at) / Fold change /veh RASL12 (11751679_a_at) / RFU CDKN2B (11736163_a_at) / Fold change /veh CDKN2B (11736163_a_at) / RFU PRF1 (11729649_at) / Fold change /veh PRF1 (11729649_at) / RFU, ZNF638 /// ZNF638-IT1 / Fold change vs veh, ZNF638 /// ZNF638-IT1 / RFU, PANK3 / Fold change vs veh, PANK3 / RFU, SH3YL1 / Fold change vs veh, SH3YL1 / RFU, ZEB2 / Fold change vs veh, ZEB2 / RFU, NRIP1 / Fold change vs veh, NRIP1 / RFU, PTTG1IP / Fold change vs veh, PTTG1IP / RFU, CAPN2 / Fold change vs veh, CAPN2 / RFU, MED14 / Fold change vs veh, MED14 / RFU, SNORA58 / Fold change vs veh, SNORA58 / RFU, C1orf63 / Fold change vs veh, C1orf63 / RFU, LRRFIP1 / Fold change vs veh, LRRFIP1 / RFU, NDUFAF7 / Fold change vs veh, NDUFAF7 / RFU, SLC12A2 / Fold change vs veh, SLC12A2 / RFU, IBTK / Fold change vs veh, IBTK / RFU, ESF1 / Fold change vs veh, ESF1 / Fold change vs veh, TMEM50B / RFU, TAOK1 / Fold change vs veh, TAOK1 / RFU, ACBD3 / Fold change vs veh, ACBD3 / RFU, TMA16 / Fold change vs veh, TMA16 / RFU, RWDD3 / Fold change vs veh, RWDD3 / RFU, BCAT1 / Fold change vs veh, BCAT1 / RFU, EDEM3 / Fold change vs veh, EDEM3 / RFU, TMEM33 / Fold change vs veh, TMEM33 / RFU, WDR75 / Fold change vs veh, WDR75 / RFU, AHCTF1 / Fold change vs veh, AHCTF1 / RFU, TFRC / Fold change vs veh, TFRC / RFU, ZDHHC17 / Fold change vs veh, ZDHHC17 / RFU, NOM1 / Fold change vs veh, NOM1 / RFU, ARL8B / Fold change vs veh, ARL8B / RFU, ZBTB11 / Fold change vs veh, ZBTB11 / RFU, TAMM41 / Fold change vs veh, TAMM41 / RFU, KIAA1704 /// LOC100996395 / Fold change vs veh, KIAA1704 /// LOC100996395 / RFU, ING1 / Fold change vs veh, ING1 / RFU, TRMT61B / Fold change vs veh, TRMT61B / RFU, FUBP3 / Fold change vs veh, FUBP3 / RFU, TP53 / Fold change vs veh, TP53 / RFU, TNKS2 / Fold change vs veh, TNKS2 / RFU, ZFP14 / Fold change vs veh, ZFP14 / RFU, ACTR2 / Fold change vs veh, ACTR2 / RFU, PPP3R1 / Fold change vs veh, PPP3R1 / RFU, PIK3R1 / Fold change vs veh, PIK3R1 / RFU, HNRNPA1 / Fold change vs veh, HNRNPA1 / RFU, RNF170 / Fold change vs veh, RNF170 / RFU, ZNF28 / Fold change vs veh, ZNF28 / RFU, RNGTT / Fold change vs veh, RNGTT / RFU, OGT / Fold change vs veh, OGT / RFU, BRD1 / Fold change vs veh, BRD1 / RFU, MARS / Fold change vs veh, MARS / RFU, ZNF655 / Fold change vs veh, ZNF655 / RFU, FAHD1 / Fold change vs veh, FAHD1 / RFU, BDP1 / Fold change vs veh, BDP1 / RFU, LRRCC1 / Fold change vs veh, LRRCC1 / RFU, ARID1A / Fold change vs veh, ARID1A / RFU, ZNF146 / Fold change vs veh, ZNF146 / RFU, ZNF330 / Fold change vs veh, ZNF330 / RFU, GPN3 / Fold change vs veh, GPN3 / RFU, C9orf123 / Fold change vs veh, C9orf123 / RFU, N4BP2L2 / Fold change vs veh, N4BP2L2 / RFU, ARFIP1 / Fold change vs veh, ARFIP1 / RFU, FAM179B / Fold change vs veh, FAM179B / RFU, BCL10 / Fold change vs veh, BCL10 / RFU, UHRF1BP1L / Fold change vs veh, UHRF1BP1L / RFU, BET1 / Fold change vs veh, BET1 / RFU, CNOT2 / Fold change vs veh, CNOT2 / RFU, ZNF268 / Fold change vs veh, ZNF268 / Fold change vs veh, ZNF507 / RFU, DGCR2 / Fold change vs veh, DGCR2 / RFU, WDSUB1 / Fold change vs veh, WDSUB1 / Fold change vs veh, HSP90B1 /// MIR3652 / RFU, ADSS / Fold change vs veh, ADSS / RFU, GK / Fold change vs veh, GK / RFU, ZNF148 / Fold change vs veh, ZNF148 / RFU, TAF9 / Fold change vs veh, TAF9 / RFU, SLC1A5 / Fold change vs veh, SLC1A5 / RFU, SLMO2 / Fold change vs veh, SLMO2 / RFU, ABCC4 / Fold change vs veh, ABCC4 / RFU, LOC101060439 /// RAP1B / Fold change vs veh, LOC101060439 /// RAP1B / RFU, RFX7 / Fold change vs veh, RFX7 / RFU, GTPBP10 / Fold change vs veh, GTPBP10 / RFU, CNEP1R1 / Fold change vs veh, CNEP1R1 / RFU, BIVM-ERCC5 /// ERCC5 / Fold change vs veh, BIVM-ERCC5 /// ERCC5 / RFU, ILF3 / Fold change vs veh, ILF3 / RFU 11762660_at / Fold change /veh 11762660_at / RFU VCAN (11757783_s_at) / Fold change /veh VCAN (11757783_s_at) / RFU DDX43 (11728927_at) / Fold change /veh DDX43 (11728927_at) / RFU KRT8 (11758188_x_at) / Fold change /veh KRT8 (11758188_x_at) / RFU NKD1 (11759106_at) / Fold change /veh NKD1 (11759106_at) / RFU SRD5A1 (11742802_a_at) / Fold change /veh SRD5A1 (11742802_a_at) / RFU TPSAB1 /// TPSB2 (11721975_s_at) / Fold change /veh TPSAB1 /// TPSB2 (11721975_s_at) / RFU GSTM3 (11746129_a_at) / Fold change /veh GSTM3 (11746129_a_at) / RFU IL23R (11737362_x_at) / Fold change /veh IL23R (11737362_x_at) / RFU TMEM51 (11727254_a_at) / Fold change /veh TMEM51 (11727254_a_at) / RFU PIWIL2 (11732686_x_at) / Fold change /veh PIWIL2 (11732686_x_at) / RFU ORM1 (11744905_x_at) / Fold change /veh ORM1 (11744905_x_at) / RFU CCDC152 (11743942_at) / Fold change /veh CCDC152 (11743942_at) / RFU ECM1 (11717891_a_at) / Fold change /veh ECM1 (11717891_a_at) / RFU IL23R (11748794_a_at) / Fold change /veh IL23R (11748794_a_at) / RFU TNFAIP8L3 (11732012_x_at) / Fold change /veh TNFAIP8L3 (11732012_x_at) / RFU MBOAT4 (11741988_at) / Fold change /veh MBOAT4 (11741988_at) / RFU 11764193_at / Fold change /veh 11764193_at / RFU TMEM53 (11763286_at) / Fold change /veh TMEM53 (11763286_at) / RFU MAGEB2 (11727129_at) / Fold change /veh MAGEB2 (11727129_at) / RFU TMEM200A (11744735_a_at) / Fold change /veh TMEM200A (11744735_a_at) / RFU CCDC152 (11751479_a_at) / Fold change /veh CCDC152 (11751479_a_at) / RFU FAM211A (11726209_a_at) / Fold change /veh FAM211A (11726209_a_at) / RFU RGS16 (11746705_a_at) / Fold change /veh RGS16 (11746705_a_at) / RFU VCAN (11755009_s_at) / Fold change /veh VCAN (11755009_s_at) / RFU RHOB (11743442_s_at) / Fold change /veh RHOB (11743442_s_at) / RFU RGS16 (11720943_a_at) / Fold change /veh RGS16 (11720943_a_at) / RFU RGS16 (11720944_at) / Fold change /veh RGS16 (11720944_at) / RFU, VPS4B / Fold change vs veh, VPS4B / RFU, CREB1 / Fold change vs veh, CREB1 / RFU, DNAJC13 / Fold change vs veh, DNAJC13 / RFU, GNAQ / Fold change vs veh, GNAQ / RFU, CDK5R1 / Fold change vs veh, CDK5R1 / RFU, ZRANB3 / Fold change vs veh, ZRANB3 / RFU, CUL4A / Fold change vs veh, CUL4A / RFU, CCNY / Fold change vs veh, CCNY / RFU, UFL1 / Fold change vs veh, UFL1 / RFU, COG3 / Fold change vs veh, COG3 / RFU, DIAPH2 / Fold change vs veh, DIAPH2 / RFU, SKA2 / Fold change vs veh, SKA2 / RFU, AFF3 / Fold change vs veh, AFF3 / RFU, LMF1 / Fold change vs veh, LMF1 / RFU, IPO11 / Fold change vs veh, IPO11 / RFU, DFFB / Fold change vs veh, DFFB / RFU, FOXP1 / Fold change vs veh, FOXP1 / RFU, CARD8 / Fold change vs veh, CARD8 / RFU, STRN3 / Fold change vs veh, STRN3 / RFU, ADK / Fold change vs veh, ADK / RFU, RASSF2 / Fold change vs veh, RASSF2 / RFU, WIPF1 / Fold change vs veh, WIPF1 / RFU, LARP1B / Fold change vs veh, LARP1B / RFU, RASA1 / Fold change vs veh, RASA1 / RFU, RB1 / Fold change vs veh, RB1 / RFU, PPFIA1 / Fold change vs veh, PPFIA1 / RFU, MAT2A / Fold change vs veh, MAT2A / RFU, CCT5 / Fold change vs veh, CCT5 / RFU, WDR92 / Fold change vs veh, WDR92 / RFU, CUX1 / Fold change vs veh, CUX1 / RFU, TTC7A / Fold change vs veh, TTC7A / RFU, TMEM135 / Fold change vs veh, TMEM135 / RFU, DEPTOR / Fold change vs veh, DEPTOR / RFU, CPM / Fold change vs veh, CPM / RFU, DNAJB6 / Fold change vs veh, DNAJB6 / RFU, CACNA2D3 / Fold change vs veh, CACNA2D3 / RFU, DTX4 / Fold change vs veh, DTX4 / RFU, TFCP2 / Fold change vs veh, TFCP2 / RFU, GMCL1 /// GMCL1P1 / Fold change vs veh, GMCL1 /// GMCL1P1 / RFU, AEBP2 / Fold change vs veh, AEBP2 / RFU, SNHG1 /// SNORD22 /// SNORD25 /// SNORD26 /// SNORD27 /// SNORD28 /// SNORD29 /// SNORD31 / Fold change vs veh, SNHG1 /// SNORD22 /// SNORD25 /// SNORD26 /// SNORD27 /// SNORD28 /// SNORD29 /// SNORD31 / Fold change (Aza/veh), C12orf56 (ProbeSet 11735607_a_at) / Fold change (ACY-1035/veh), C12orf56 (ProbeSet 11735607_a_at) / Fold change (Aza/veh), FGFR1OP (ProbeSet 11751329_s_at) / Fold change (ACY-1035/veh), FGFR1OP (ProbeSet 11751329_s_at) / Fold change (Aza/veh), VPS36 (ProbeSet 11739960_a_at) / Fold change (ACY-1035/veh), VPS36 (ProbeSet 11739960_a_at) / RFU SYPL1 (11715823_x_at) / Fold change /veh SYPL1 (11715823_x_at) / RFU IGFBP7 (11715501_s_at) / Fold change /veh IGFBP7 (11715501_s_at) / RFU REEP3 (11722064_at) / Fold change /veh REEP3 (11722064_at) / RFU IGLL1 (11728026_x_at) / Fold change /veh IGLL1 (11728026_x_at): dose or concentration left out as unconfirmed", "settings": "ProbeSet 11758397_s_at; LIST B", "data": [{"molecule": "Nc1ncn([C@@H]2O[C@H](CO)[C@@H](O)[C@H]2O)c(=O)n1", "note": "[azacitidine]", "values": [{"measurement": "RFU, RNF170", "value": 159.42, "unit": "RFU"}]}]}
